We go through 29 compounds from US20080004290A1, “Anti-Cancer Agents” (THE UNIVERSITY OF QUEENSLAND, priority 2003, published 2008).

For test [1], the system named is MM96L melanoma cells. In words: Cell survival assay (clonogenic survival, SRB). The class given is cell-based, human. To be noted: for SI (Selectivity Index = IC50 (NFF)/IC50 (MM96L)): NFF vs MM96L. In a few lines: (§1)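 Cells (5×10^3/well, RPMI 1640 with 10% FCS) treated 24 h with compound at 0.01-10 μg/mL, then washed and grown 72 h drug-free at 37 °C, 5% CO2. Survival read by SRB staining after methylated-spirit fixation, absorbance 564 nm.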

Test [2] concerns NFF, neonatal foreskin fibroblasts. Briefly: Cell survival assay (clonogenic survival, SRB), normal cells. Format: cell-based, human. The settings on record: SRB. In a few lines:
as §1

Where [3] appears, read: MM96L melanoma, 24 h with compound, further 72 h growth, SRB, read-out: IC50 (uM) MM96L.
[4] abbreviates: NFF normal fibroblasts, 24 h with compound, further 72 h growth, read-out: IC50 (uM) NFF.
The mark [5] stands for this setting: Table 8, 24 hours with compound, further growth, SRB, read-out: IC50 (μM) MM96.
The mark [6] stands for this setting: Table 8, IC50 (NFF)/IC50 (MM96L).
Setting [7] is: Table 8, 24 hours with compound, further growth, read-out: IC50 (μM) NFF.
The mark [8] stands for this setting: Homo sapiens, MM96L, 24 h, Table 6, 24 hours with compound, further growth, SRB, read-out: IC50 (μM) MM96L.
[9] abbreviates: Table 6, IC50 (NFF)/IC50 (MM96L).
Where [10] appears, read: Homo sapiens, Fibroblast, 24 h, Table 6, 24 hours with compound, further growth, read-out: IC50 (μM) NFF.
Where [11] appears, read: Table 5, 24 hours with compound, further growth, SRB, read-out: IC50 MM96L.
Setting [12] is: Table 5, Selectivity Index = IC50 (NFF)/IC50 (MM96L).
Setting [13] is: Table 5, 24 hours with compound, further growth, read-out: IC50 NFF.
The mark [14] stands for this setting: Homo sapiens, MM96L, MM96L melanoma, 24 h with compound, further 72 h growth, SRB, read-out: IC50 (uM) MM96L.
Setting [15] is: Homo sapiens, Fibroblast, NFF normal fibroblasts, 24 h with compound, further 72 h growth, read-out: IC50 (uM) NFF.
Setting [16] is: Homo sapiens, MM96L, most preferred compounds, exemplary examples, read-out: potency of IC50 against the MM96 melanoma cells.

Like-named read-outs stand apart in the source and are kept apart here.

In general, IC50 refers to the concentration that gives 50% inhibition. Take `CN(C)c1ccc(C(=O)NC(CCCCCC(=O)NO)C(=O)NC2CCCc3ccccc32)cc1` (racemic) [Example 125]: the IC50 turned out to be 0.3 ± 0.1 µM in test [1] (setting [3]) and 1.81 ± 0.07 µM in test [2] (setting [4]). Besides, in test [1], the “SI (Selectivity Index = IC50 (NFF)/IC50 (MM96L))” value came to 6.0.

Take `CN(C)c1ccc(C(=O)N[C@@H](CSCCCC(=O)NO)C(=O)NCc2ccc(C(=O)Nc3ccc(-c4ccccc4)cc3)cc2)cc1` [Example 111]: the results for the half-maximal inhibitory concentration (IC50) in test [1] (setting [5]) and in test [2] (setting [7]) were 0.51 µM and 1.11 µM, respectively. The compound also yielded a Selectivity in test [1] (setting [6]) of 2.2.

As for `O=C(/C=C/c1ccccc1)N[C@@H](CSCCCC(=O)NO)C(=O)NCc1cccnc1` [Example 101], the IC50 in test [1] (Homo sapiens, MM96L, 24 h, Table 7, 24 hours with compound, further growth, SRB, read-out: IC50 (μM) MM96L) worked out at 0.9 ± 0.2 µM; in test [2] (Homo sapiens, Fibroblast, 24 h, Table 7, 24 hours with compound, further growth, read-out: IC50 (μM) NFF), 13.2 ± 0.7 µM. Moreover, the Selectivity in test [1] (Table 7, IC50 (NFF)/IC50 (MM96L)) came out at 15.1.

On to `CN(C)c1ccc(C(=O)N[C@@H](CSCCCC(=O)NO)C(=O)NCc2ccncc2)cc1` [Example 80], for which the IC50 stood at 2.2 ± 0.3 µM in test [1] (setting [8]) and 14 ± 1 µM in test [2] (setting [10]). The compound further showed a Selectivity in test [1] (setting [9]) of 6.2.

On to `O=C(CCCSC[C@H](NC(=O)c1ccc(F)cc1)C(=O)NCc1ccccc1)NO` [Example 29], for which the IC50 in test [1] (setting [11]) turned out to be 5.2 ± 0.6 µM; in test [2] (setting [13]), 26 ± 1 µM. In test [1] (setting [12]), this compound yielded a Selectivity of 5.0.

In the case of `CN(C)c1ccc(C(=O)N[C@@H](CSCCCC(=O)NO)C(=O)Nc2cccc3ccccc23)cc1` [Example 65], the values for the IC50 in test [1] (setting [8]) and in test [2] (setting [10]) were 1.3 ± 0.1 µM and 5.9 ± 0.7 µM, respectively. Further, in test [1] (setting [9]), the Selectivity is given as 4.5.

For `CN(C)c1ccc(NC(=O)[C@H](CCCCCC(=O)NO)NC(=O)OCc2ccccc2)cc1` [Example 151], the half-maximal inhibitory concentration (IC50) in test [1] (setting [14]) worked out at 0.61 µM; in test [2] (setting [15]), 0.65 µM. In test [1], the “SI (Selectivity Index = IC50 (NFF)/IC50 (MM96L))” value turned out to be 1.1.

Regarding `CN(C)c1ccc(C(=O)N[C@@H](CSCCCC(=O)NO)C(=O)NCc2ccc(C(=O)Nc3cccc4c3CCCC4)cc2)cc1` [Example 118], the IC50 in test [1] (setting [5]) was found to be 1.17 µM; in test [2] (setting [7]) it was 3.78 µM. Besides, the Selectivity in test [1] (setting [6]) is on record as 3.2.

For the compound `O=C(CCCSC[C@H](NC(=O)c1cccnc1)C(=O)NCc1ccccc1)NO` [Example 36], the IC50 in test [1] (setting [11]) was 12.8 ± 0.8 µM; in test [2] (setting [13]), above 100 µM. The compound further showed a Selectivity in test [1] (setting [12]) above 8.

For the compound `O=C(CCCCC[C@H](NC(=O)c1cc2ccccc2[nH]1)C(=O)NCc1ccccc1)NO` [Example 130], the figures for the IC50 in test [1] (setting [16]), in test [1] (setting [3]) and in test [2] (setting [4]) were at most 0.5 µM, 0.252 µM and 1.26 µM, respectively. In addition, the “SI (Selectivity Index = IC50 (NFF)/IC50 (MM96L))” value in test [1] was found to be 5.0.

With `CN(C)c1ccc(C(=O)N[C@@H](CCCCCC(=O)NO)C(=O)NC2(Cc3ccccc3)CCCC2)cc1` [Example 128], the IC50 in test [1] (setting [14]) worked out at 0.9 ± 0.2 µM; in test [2] (setting [15]) it was 3 ± 0.3 µM. Moreover, the “SI (Selectivity Index = IC50 (NFF)/IC50 (MM96L))” value in test [1] is on record as 3.5.

For `CN(C)c1ccc(C(=O)N[C@@H](CSCCCC(=O)NO)C(=O)NCc2ccc(C(=O)NC3CCCC3)cc2)cc1` [Example 117], the IC50 in test [1] (setting [5]) was 1.19 µM; in test [2] (setting [7]) it was 5.27 µM. This compound showed a Selectivity in test [1] (setting [6]) of 4.4.

Regarding `O=C(CCCCC[C@H](NC(=O)CCCc1c[nH]c2ccccc12)C(=O)NCc1ccccc1)NO` [Example 163], the IC50 in test [1] (setting [14]) stood at 1.84 µM; in test [2] (setting [15]), 7.03 µM. Besides, the “SI (Selectivity Index = IC50 (NFF)/IC50 (MM96L))” value in test [1] was 3.8.

For `O=C(CCCCC[C@H](NC(=O)c1ccco1)C(=O)NCc1ccccc1)NO` (racemic) [Example 133], the IC50 in test [1] (setting [14]) is 0.2 ± 0.1 µM; in test [1] (setting [16]) it was at most 0.5 µM; in test [2] (setting [15]) it was 4.6 ± 0.4 µM. The “SI (Selectivity Index = IC50 (NFF)/IC50 (MM96L))” value in test [1] worked out at 23.

As for `CN(C)c1ccc(NC(=O)[C@H](CCCCCC(=O)NO)NC(=O)/C=C/c2ccccc2)cc1` [Example 150], the IC50 in test [1] (setting [14]) was found to be 0.165 µM; in test [2] (setting [15]), 0.24 µM. In addition, the “SI (Selectivity Index = IC50 (NFF)/IC50 (MM96L))” value in test [1] stood at 1.5.

Consider `O=C(CCCSC[C@H](NC(=O)C1CCC(=O)N1)C(=O)NCc1ccccc1)NO` (some centres unmarked) [Example 56], for which the IC50 in test [1] (setting [11]) came to 4.4 ± 0.3 µM; in test [2] (setting [13]), 9.6 ± 0.9 µM. In addition, the Selectivity in test [1] (setting [12]) worked out at 2.2.

`O=C(CCCSC[C@H](NC(=O)c1cc2ccccc2cc1O)C(=O)NCc1ccccc1)NO` [Example 39]: the IC50 in test [1] (setting [11]) was 13 ± 2 µM; in test [2] (setting [13]) it was above 100 µM. Further, the Selectivity in test [1] (setting [12]) is reported as above 8.

`CN(C)c1ccc(C(=O)N[C@@H](CSCCCC(=O)NO)C(=O)NCc2ccc(C(=O)NCc3ccccc3)cc2)cc1` [Example 106]: the IC50 is 1.18 µM in test [1] (setting [5]) and 11.8 µM in test [2] (setting [7]). The compound further displayed a Selectivity in test [1] (setting [6]) of 10.0.

Take `CN(C)c1ccc(C(=O)N[C@@H](CSCCCC(=O)NO)C(=O)NCc2ccc(C(=O)NCCc3ccc(O)cc3)cc2)cc1` [Example 110]: the results for the IC50 in test [1] (setting [5]) and in test [2] (setting [7]) were 2.98 µM and 16.1 µM, respectively. In test [1] (setting [6]), the Selectivity is reported as 5.4.

Regarding `O=C(CCCSC[C@H](NC(=O)C1CC1)C(=O)NCc1ccccc1)NO` [Example 55], the half-inhibitory concentration (IC50) in test [1] (setting [11]) is 21 ± 2 µM; in test [2] (setting [13]) it was above 100 µM. Further, the Selectivity in test [1] (setting [12]) was above 5.

With `O=C(CCCCC[C@H](NC(=O)c1cccnc1)C(=O)NCc1ccccc1)NO` (racemic) [Example 134], the values for the concentration for half-maximal inhibition (IC50) in test [1] (setting [14]) and in test [2] (setting [15]) were 9.5 ± 0.8 µM and 24 ± 8 µM, respectively. For the same compound, the “SI (Selectivity Index = IC50 (NFF)/IC50 (MM96L))” value in test [1] is recorded as 2.5.

For `O=C(/C=C/c1ccccc1)N[C@@H](CCCCCC(=O)NO)C(=O)NCc1ccccc1` [Example 153], the IC50 in test [1] (setting [3]) is 0.731 µM; in test [2] (setting [4]) it was 0.99 µM. The “SI (Selectivity Index = IC50 (NFF)/IC50 (MM96L))” value in test [1] was 1.4.

For `CC(=O)c1cccc(NC(=O)[C@H](CSCCCC(=O)NO)NC(=O)c2ccc(N(C)C)cc2)c1` [Example 60], the values for the IC50 in test [1] (setting [8]) and in test [2] (setting [10]) were 0.55 ± 0.05 µM and 1.6 ± 0.08 µM, respectively. For the same compound, in test [1] (setting [9]), the Selectivity stood at 2.9.

On to `CN(C)c1ccc(C(=O)N[C@@H](CSCCCC(=O)NO)C(=O)N(Cc2ccccc2)Cc2ccccc2)cc1` [Example 74], for which the IC50 in test [1] (setting [8]) was 2.3 ± 0.2 µM; in test [2] (setting [10]), 15.3 ± 0.6 µM. The compound also returned a Selectivity in test [1] (setting [9]) of 6.5.

With `CN(C)c1ccc(C(=O)N[C@@H](CSCCCC(=O)NO)C(=O)NCc2ccc(C(=O)Nc3ccc4ncccc4c3)cc2)cc1` [Example 116], the values for the IC50 in test [1] (setting [5]) and in test [2] (setting [7]) were 2.23 µM and 5.57 µM, respectively. The compound further gave a Selectivity in test [1] (setting [6]) of 2.5.

`O=C(CCCSC[C@H](NC(=O)Cc1ccc(-c2ccccc2)cc1)C(=O)NCc1ccccc1)NO` [Example 42]: the results for the IC50 in test [1] (setting [11]) and in test [2] (setting [13]) were 12 ± 3 µM and 21 ± 2 µM, respectively. Besides, the Selectivity in test [1] (setting [12]) is listed as 1.8.

Consider `O=C(/C=C/c1ccccc1)N[C@@H](CSCCCC(=O)NO)C(=O)NCc1ccccc1` [Example 48], for which the IC50 in test [1] (setting [11]) is 0.2 ± 0.1 µM; in test [2] (setting [13]), 0.8 ± 0.2 µM. Moreover, the Selectivity in test [1] (setting [12]) was found to be 4.0.

For `O=C(CCCSC[C@H](NC(=O)c1ccccc1[N+](=O)[O-])C(=O)NCc1ccccc1)NO` [Example 32], the IC50 in test [1] (setting [11]) was 10.6 ± 0.1 µM; in test [2] (setting [13]), above 100 µM. In test [1] (setting [12]), this compound registered a Selectivity above 10.

Regarding `CN(C)c1ccc(C(=O)NC(CSCCCC(=O)NO)C(=O)NCc2ccc(C(=O)NC3CCCc4ccccc43)cc2)cc1` (mixture of isomers) [Example 119], the IC50 in test [1] (setting [5]) came to 0.93 µM; in test [2] (setting [7]), 1.74 µM. In addition, the Selectivity in test [1] (setting [6]) was determined as 1.9.
